In ChEMBL document CHEMBL4477227, “Synthesis and antibacterial evaluation of macrocyclic diarylheptanoid derivatives” (Bioorg Med Chem Lett, 2016):
Converted amounts (≈) assume the structure as drawn.

Assays:
[1] = system: Mycobacterium tuberculosis; test: Antitubercular activity against Mycobacterium tuberculosis H37Rv by microbroth dilution method; format: functional; conditions: Mycobacterium tuberculosis, H37Rv; read-out: MIC
[2] = system: Bacillus anthracis; test: Antibacterial activity against Bacillus anthracis Sterne 34F2 by microbroth dilution method; format: functional; conditions: Bacillus anthracis, Sterne 34F2; read-out: MIC
[3] = system: Enterococcus faecalis; test: Antibacterial activity against Enterococcus faecalis ATCC 33186 by microbroth dilution method; format: functional; conditions: Enterococcus faecalis, ATCC 33186; read-out: MIC
[4] = system: Staphylococcus aureus; test: Antibacterial activity against methicillin-sensitive Staphylococcus aureus ATCC 29213 by microbroth dilution method; format: functional; conditions: Staphylococcus aureus, ATCC 29213; read-out: MIC
[5] = system: Staphylococcus aureus; test: Antibacterial activity against methicillin-resistant Staphylococcus aureus NRS70 by microbroth dilution method; format: functional; conditions: Staphylococcus aureus, NRS70; read-out: MIC
[6] = system: Streptococcus pyogenes; test: Antibacterial activity against Streptococcus pyogenes ATCC 700294 by microbroth dilution method; format: functional; conditions: Streptococcus pyogenes, ATCC 700294; read-out: MIC
[7] = system: Streptococcus pneumoniae; test: Antibacterial activity against Streptococcus pneumoniae R6 by microbroth dilution method; format: functional; conditions: Streptococcus pneumoniae, R6; read-out: MIC
[8] = system: Bacillus subtilis; test: Antibacterial activity against Bacillus subtilis ATCC 23857 by microbroth dilution method; format: functional; conditions: Bacillus subtilis, ATCC 23857; read-out: MIC
[9] = system: Acinetobacter baumannii; test: Antibacterial activity against Acinetobacter baumannii ATCC 19606 by microbroth dilution method; format: functional, ATCC 19606 = CIP 70.34 = JCM 6841; conditions: Acinetobacter baumannii, ATCC 19606 = CIP 70.34 = JCM 6841; read-out: MIC
[10] = system: Escherichia coli; test: Antibacterial activity against Escherichia coli K-12 by microbroth dilution method; format: functional
[11] = system: Escherichia coli; test: Antibacterial activity against Escherichia coli harboring TolC deletion mutant by microbroth dilution method; format: functional; conditions: Escherichia coli; read-out: MIC
[12] = system: Burkholderia cepacia; test: Antibacterial activity against Burkholderia cepacia ATCC 25416 by microbroth dilution method; format: functional
[13] = system: Klebsiella pneumoniae; test: Antibacterial activity against Klebsiella pneumoniae ATCC 33495 by microbroth dilution method; format: functional
[14] = system: Proteus mirabilis; test: Antibacterial activity against Proteus mirabilis ATCC 25933 by microbroth dilution method; format: functional
[15] = system: Proteus vulgaris; test: Antibacterial activity against Proteus vulgaris ATCC 33420 by microbroth dilution method; format: functional
[16] = system: Pseudomonas aeruginosa; test: Antibacterial activity against Pseudomonas aeruginosa PAO1 by microbroth dilution method; format: functional

COc1ccc2cc1Oc1cc(ccc1OC)CCC(NC(=O)CCc1ccccc1)CCCC2 (stereo not drawn)
MIC [1]: > 100 µg/mL
MIC [2]: > 100 µg/mL
MIC [3]: > 100 µg/mL
MIC [4]: > 100 µg/mL
MIC [5]: > 100 µg/mL
MIC [6]: > 100 µg/mL
MIC [7]: > 100 µg/mL
MIC [8]: > 100 µg/mL
MIC [9]: > 100 µg/mL
MIC [10]: > 100 µg/mL
MIC [11]: > 100 µg/mL
MIC [12]: > 100 µg/mL
MIC [13]: > 100 µg/mL
MIC [14]: > 100 µg/mL
MIC [15]: > 100 µg/mL
MIC [16]: > 100 µg/mL

COc1ccc2cc1Oc1cc(ccc1OC)CCC(OC(=O)NCc1ccccc1)CCCC2 (stereo not drawn)
MIC [1]: > 100 µg/mL
MIC [2]: > 100 µg/mL
MIC [3]: > 100 µg/mL
MIC [4]: > 100 µg/mL
MIC [5]: > 100 µg/mL
MIC [6]: > 100 µg/mL
MIC [7]: > 100 µg/mL
MIC [8]: > 100 µg/mL
MIC [9]: > 100 µg/mL
MIC [10]: > 100 µg/mL
MIC [11]: > 100 µg/mL
MIC [12]: > 100 µg/mL
MIC [13]: > 100 µg/mL
MIC [14]: > 100 µg/mL
MIC [15]: > 100 µg/mL
MIC [16]: > 100 µg/mL

Oc1ccc2cc1Oc1cc(ccc1O)CCC(NCc1ccccc1)CCCC2 (stereo not drawn)
MIC [1]: 100 µg/mL (≈ 248 µM)
MIC [2]: > 50 µg/mL
MIC [3]: > 50 µg/mL
MIC [4]: > 50 µg/mL
MIC [5]: > 50 µg/mL
MIC [6]: > 50 µg/mL
MIC [7]: > 50 µg/mL
MIC [8]: > 50 µg/mL
MIC [9]: > 50 µg/mL
MIC [10]: > 50 µg/mL
MIC [11]: 50 µg/mL (≈ 124 µM)
MIC [12]: > 100 µg/mL
MIC [13]: > 100 µg/mL
MIC [14]: > 100 µg/mL
MIC [15]: > 100 µg/mL
MIC [16]: > 100 µg/mL

COc1ccc2cc1Oc1cc(ccc1OC)CCC(OS(=O)(=O)c1ccc(C)cc1)CCCC2 (stereo not drawn)
MIC [1]: > 100 µg/mL
MIC [2]: > 100 µg/mL
MIC [3]: 100 µg/mL (≈ 201 µM)
MIC [4]: > 100 µg/mL
MIC [5]: 100 µg/mL (≈ 201 µM)
MIC [6]: > 100 µg/mL
MIC [7]: > 100 µg/mL
MIC [8]: > 100 µg/mL
MIC [9]: > 100 µg/mL
MIC [10]: > 100 µg/mL
MIC [11]: > 100 µg/mL
MIC [12]: > 100 µg/mL
MIC [13]: > 100 µg/mL
MIC [14]: > 100 µg/mL
MIC [15]: > 100 µg/mL
MIC [16]: > 100 µg/mL

COc1cc2ccc1Oc1cc(ccc1OC)CCCCC(NCCc1ccc(F)cc1)CC2 (stereo not drawn)
MIC [1]: 25 µg/mL (≈ 53.9 µM)
MIC [2]: 50 µg/mL (≈ 108 µM)
MIC [3]: 25 µg/mL (≈ 53.9 µM)
MIC [4]: 25 µg/mL (≈ 53.9 µM)
MIC [5]: 25 µg/mL (≈ 53.9 µM)
MIC [6]: 50 µg/mL (≈ 108 µM)
MIC [7]: 25 µg/mL (≈ 53.9 µM)
MIC [8]: 12.5 µg/mL (≈ 27 µM)
MIC [9]: 100 µg/mL (≈ 216 µM)
MIC [10]: > 100 µg/mL
MIC [11]: 25 µg/mL (≈ 53.9 µM)
MIC [12]: > 100 µg/mL
MIC [13]: > 100 µg/mL
MIC [14]: > 100 µg/mL
MIC [15]: > 100 µg/mL
MIC [16]: > 100 µg/mL

COc1ccc2cc1Oc1cc(ccc1OC)CCC(NCc1ccc(C(F)(F)F)cc1)CCCC2 (stereo not drawn)
MIC [1]: 25 µg/mL (≈ 50 µM)
MIC [2]: 12.5 µg/mL (≈ 25 µM)
MIC [3]: > 100 µg/mL
MIC [4]: > 100 µg/mL
MIC [5]: 12.5 µg/mL (≈ 25 µM)
MIC [6]: 50 µg/mL (≈ 100 µM)
MIC [7]: > 100 µg/mL
MIC [8]: 12.5 µg/mL (≈ 25 µM)
MIC [9]: > 100 µg/mL
MIC [10]: > 100 µg/mL
MIC [11]: 6.25 µg/mL (≈ 12.5 µM)
MIC [12]: > 100 µg/mL
MIC [13]: > 100 µg/mL
MIC [14]: > 100 µg/mL
MIC [15]: > 100 µg/mL
MIC [16]: > 100 µg/mL

COc1ccc2cc1Oc1cc(ccc1OC)CCC(NCCCCc1ccccc1)CCCC2 (stereo not drawn)
MIC [1]: 25 µg/mL (≈ 52.8 µM)
MIC [2]: 50 µg/mL (≈ 106 µM)
MIC [3]: 25 µg/mL (≈ 52.8 µM)
MIC [4]: 25 µg/mL (≈ 52.8 µM)
MIC [5]: 25 µg/mL (≈ 52.8 µM)
MIC [6]: 12.5 µg/mL (≈ 26.4 µM)
MIC [7]: 50 µg/mL (≈ 106 µM)
MIC [8]: 12.5 µg/mL (≈ 26.4 µM)
MIC [9]: 100 µg/mL (≈ 211 µM)
MIC [10]: > 100 µg/mL
MIC [11]: 12.5 µg/mL (≈ 26.4 µM)
MIC [12]: > 100 µg/mL
MIC [13]: > 100 µg/mL
MIC [14]: > 100 µg/mL
MIC [15]: > 100 µg/mL
MIC [16]: > 100 µg/mL

COc1ccc2cc1Oc1cccc(c1)CCC(NCCc1ccc(F)cc1)CC2 (stereo not drawn)
MIC [1]: 25 µg/mL (≈ 61.7 µM)
MIC [2]: 50 µg/mL (≈ 123 µM)
MIC [3]: 50 µg/mL (≈ 123 µM)
MIC [4]: 25 µg/mL (≈ 61.7 µM)
MIC [5]: 25 µg/mL (≈ 61.7 µM)
MIC [6]: 50 µg/mL (≈ 123 µM)
MIC [7]: 50 µg/mL (≈ 123 µM)
MIC [8]: 25 µg/mL (≈ 61.7 µM)
MIC [9]: 50 µg/mL (≈ 123 µM)
MIC [10]: > 100 µg/mL
MIC [11]: 12.5 µg/mL (≈ 30.8 µM)
MIC [12]: > 100 µg/mL
MIC [13]: > 100 µg/mL
MIC [14]: > 100 µg/mL
MIC [15]: > 100 µg/mL
MIC [16]: > 100 µg/mL

COc1ccc2cc1Oc1cc(ccc1OC)CCC(NCCc1ccc(F)cc1)CC2
MIC [1]: 50 µg/mL (≈ 115 µM)
MIC [2]: 100 µg/mL (≈ 230 µM)
MIC [3]: 100 µg/mL (≈ 230 µM)
MIC [4]: 50 µg/mL (≈ 115 µM)
MIC [5]: 100 µg/mL (≈ 230 µM)
MIC [6]: 100 µg/mL (≈ 230 µM)
MIC [7]: 100 µg/mL (≈ 230 µM)
MIC [8]: 50 µg/mL (≈ 115 µM)
MIC [9]: 100 µg/mL (≈ 230 µM)
MIC [10]: > 100 µg/mL
MIC [11]: 50 µg/mL (≈ 115 µM)
MIC [12]: > 100 µg/mL
MIC [13]: > 100 µg/mL
MIC [14]: > 100 µg/mL
MIC [15]: > 100 µg/mL
MIC [16]: > 100 µg/mL

CCNC1CCCCc2ccc(OC)c(c2)Oc2cc(ccc2OC)CC1 (stereo not drawn)
MIC [1]: 100 µg/mL (≈ 271 µM)
MIC [2]: > 100 µg/mL
MIC [3]: > 100 µg/mL
MIC [4]: > 100 µg/mL
MIC [5]: > 100 µg/mL
MIC [6]: > 100 µg/mL
MIC [7]: > 100 µg/mL
MIC [8]: > 100 µg/mL
MIC [9]: > 100 µg/mL
MIC [10]: > 100 µg/mL
MIC [11]: > 100 µg/mL
MIC [12]: > 100 µg/mL
MIC [13]: > 100 µg/mL
MIC [14]: > 100 µg/mL
MIC [15]: > 100 µg/mL
MIC [16]: > 100 µg/mL

COc1ccc2cc1Oc1cc(ccc1OC)CCC(OC(=O)CCc1ccccc1)CCCC2 (stereo not drawn)
MIC [1]: > 100 µg/mL
MIC [2]: > 100 µg/mL
MIC [3]: > 100 µg/mL
MIC [4]: > 100 µg/mL
MIC [5]: > 100 µg/mL
MIC [6]: > 100 µg/mL
MIC [7]: > 100 µg/mL
MIC [8]: > 100 µg/mL
MIC [9]: > 100 µg/mL
MIC [10]: > 100 µg/mL
MIC [11]: > 100 µg/mL
MIC [12]: > 100 µg/mL
MIC [13]: > 100 µg/mL
MIC [14]: > 100 µg/mL
MIC [15]: > 100 µg/mL
MIC [16]: > 100 µg/mL

COc1ccc2cc1Oc1cc(ccc1OC)CCC(NCCCc1ccccc1)CCCC2 (stereo not drawn)
MIC [1]: 50 µg/mL (≈ 109 µM)
MIC [2]: 50 µg/mL (≈ 109 µM)
MIC [3]: 25 µg/mL (≈ 54.4 µM)
MIC [4]: 25 µg/mL (≈ 54.4 µM)
MIC [5]: 25 µg/mL (≈ 54.4 µM)
MIC [6]: 50 µg/mL (≈ 109 µM)
MIC [7]: 50 µg/mL (≈ 109 µM)
MIC [8]: 25 µg/mL (≈ 54.4 µM)
MIC [9]: 50 µg/mL (≈ 109 µM)
MIC [10]: > 100 µg/mL
MIC [11]: 12.5 µg/mL (≈ 27.2 µM)
MIC [12]: > 100 µg/mL
MIC [13]: > 100 µg/mL
MIC [14]: > 100 µg/mL
MIC [15]: > 100 µg/mL
MIC [16]: > 100 µg/mL

COc1ccc(CCNC2CCCCc3ccc(OC)c(c3)Oc3cc(ccc3OC)CC2)cc1OC (stereo not drawn)
MIC [1]: 100 µg/mL (≈ 198 µM)
MIC [2]: > 100 µg/mL
MIC [3]: > 100 µg/mL
MIC [4]: > 100 µg/mL
MIC [5]: > 100 µg/mL
MIC [6]: > 100 µg/mL
MIC [7]: > 100 µg/mL
MIC [8]: > 100 µg/mL
MIC [9]: > 100 µg/mL
MIC [10]: > 100 µg/mL
MIC [11]: > 100 µg/mL
MIC [12]: > 100 µg/mL
MIC [13]: > 100 µg/mL
MIC [14]: > 100 µg/mL
MIC [15]: > 100 µg/mL
MIC [16]: > 100 µg/mL
